Data set [1] in a line: Metabolic stability in rat hepatocytes assessed as intrinsic clearance measured per 10^6 cells. Type of data set: ADME, cell-based, Hepatocyte. The following applies: read-out: CLH.
A short description of data set [2]: Metabolic stability in human hepatocytes assessed as intrinsic clearance measured per 10^6 cells. Conditions: read-out: CLH. Type of data set: ADME, cell-based, Hepatocyte.
A short description of data set [3]: Fraction unbound in human plasma. Type of data set: ADME, cell-free.
The nature of data set [4]: Clearance in Sprague-Dawley rat at 5 mg/kg, po by LC-MS analysis. Type of data set: ADME, organism-based. The following applies: in vivo.
Data set [5] can be described thus: Half life in Sprague-Dawley rat at 5 mg/kg, po by LC-MS analysis. Type of data set: ADME, organism-based. The following applies: in vivo.
A short description of data set [6]: Volume of distribution at steady state in Sprague-Dawley rat at 5 mg/kg, po by LC-MS analysis. Type of data set: ADME, organism-based. Conditions: in vivo.
Data set [7] is described as follows: Solubility of the compound in PBS at pH 7.4. Type of data set: physicochemical.
Data set [8] can be described thus: Fraction unbound in Sprague-Dawley rat plasma. Type of data set: ADME, cell-free.
A short description of data set [9]: Oral bioavailability in Sprague-Dawley rat at 5 mg/kg administered through oral gavage by LC-MS analysis. Type of data set: ADME, organism-based. Conditions: in vivo.

What is called fraction unbound is free concentration divided by total concentration. Read a high fraction unbound as weak binding. What is called CL/F is clearance divided by bioavailability, as obtained after extravascular dosing. As a reminder, the half-life is how long it takes for the measured level to halve. Low readings indicate fast loss, high ones slow loss. One may read the solubility as how much of the substance goes into solution per volume. A low value points to a poorly soluble substance. One may read the bioavailability as the share of a dose that reaches the circulation, judged against a reference dose that is usually intravenous.

Values after ≈ are worked out from the molar mass of the structure shown.

For the molecule `CC(C)(O)c1cnc([S@](N)(=O)=NC(=O)Nc2c3c(cc4c2CCC4)CCC3)s1`, the hepatocyte CLint in data set [1] was found to be 5.2 µL/min/1e6 cells; in data set [2], 0.63 µL/min/1e6 cells. In data set [3], the fraction unbound is 0.009. In data set [4], this molecule came in with a CL/F of 3.7 mL/min/kg. The molecule also had a half-life in [5] of 2.6 h. In [6], this molecule returned a Vdss of 0.29 L/kg.
For the molecule `CC(C)(O)c1csc([S@](N)(=O)=NC(=O)Nc2c3c(cc4c2CCC4)CCC3)c1`, in data set [7], the solubility is 24 µg/mL (≈ 57.2 µM). Moreover, the hepatocyte CLint in data set [1] came to 2.5 µL/min/1e6 cells; in data set [2], 3.6 µL/min/1e6 cells. Also, the free fraction (fraction unbound) was determined as 0.011 in data set [8] and 0.009 in data set [3]. Besides, the apparent clearance CL/F in [4] came to 1.15 mL/min/kg. The molecule further showed a half-life in data set [5] of 2.91 h. The same molecule came in with a Vdss in [6] of 0.191 L/kg. This molecule also came in with a bioavailability in data set [9] of 50%.
Consider `CC(C)(O)c1coc(S(=O)(=O)NC(=O)Nc2c3c(cc4c2CCC4)CCC3)c1`, for which the concentration in solution in [7] (solubility) came to 1080 µg/mL (≈ 2680 µM). The fraction unbound in [8] was 0.013; in [3] it was 0.007. The molecule further returned a CL/F in [4] of 15.9 mL/min/kg. This molecule showed a half-life in [5] of 0.635 h. The Vdss in data set [6] was determined as 0.271 L/kg. This molecule also had a bioavailability in data set [9] of 47%.
Take `CC(C)(O)c1nc([S@](N)(=O)=NC(=O)Nc2c3c(cc4c2CCC4)CCC3)cs1`: the hepatocyte CLint came out at 5.4 µL/min/1e6 cells in data set [1] and 1.6 µL/min/1e6 cells in [2]. The fraction unbound in data set [8] was 0.05; in data set [3], 0.057. Also, the CL/F in data set [4] is 11.1 mL/min/kg. In data set [5], the half-life is 2.36 h. Besides, in data set [6], the Vdss came to 0.541 L/kg. The molecule also had a bioavailability in data set [9] of 100%.
As to `CC(C)(O)c1ncc([S@](N)(=O)=NC(=O)Nc2c3c(c(F)c4c2CCC4)CCC3)s1`, the concentration in solution in data set [7] (solubility) was 8 µg/mL (≈ 18.2 µM). Moreover, the hepatocyte CLint in data set [1] was 3.7 µL/min/1e6 cells; in data set [2], 3 µL/min/1e6 cells. Further, the results for the fraction unbound in [8] and in data set [3] were 0.007 and 0.003, respectively. This molecule also registered an apparent clearance CL/F in data set [4] of 1.08 mL/min/kg. Also, the half-life in data set [5] is 3.07 h. In addition, the Vdss in data set [6] worked out at 0.178 L/kg. This molecule yielded a bioavailability in [9] of 68%.
Regarding `CC(C)(O)c1csc([S@](N)(=O)=NC(=O)Nc2c3c(cc4c2CCC4)CCC3)n1`, the hepatocyte CLint in [1] came out at 5.2 µL/min/1e6 cells; in [2] it was 4.2 µL/min/1e6 cells. In addition, the fraction unbound in data set [8] turned out to be 0.02; in data set [3], 0.014. This molecule also came in with a CL/F in data set [4] of 3.21 mL/min/kg. For the same molecule, the half-life in data set [5] was 4.13 h. In data set [6], this molecule returned a Vdss of 0.353 L/kg. For the same molecule, in [9], the bioavailability is 70%.

These data come from ChEMBL document CHEMBL6115017, “Discovery of DFV890, a Potent Sulfonimidamide-Containing NLRP3 Inflammasome Inhibitor” (J Med Chem, 2025).
